How the values were obtained:
Experiment in all cases: relative viability (nuclei count vs DMSO), 5 days (fraction); higher = more cells survive
[1] = compound: CC1=C(C(=NN1)C)CC2=C(C3=C(S2)N(C(=O)N(C3=O)C)CC(C)C)C(=O)N4C[C@@H](CO4)O + CC(=O)c1c(C)c2cnc(Nc3ccc(N4CCNCC4)cn3)nc2n(C2CCCC2)c1=O [Palbociclib] (partner 0.5 µM)
Procedure, shortened: (§1)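 The day after seeding in 1536-well plates, lung cancer cell lines were treated by pin tool with a single drug, or with a fixed anchor-drug dose together with five library-drug doses (not always all listed) in √10 steps. After 5 days, a combined fix-and-stain solution (final 0.05% Triton X-100, 1% formaldehyde, 1 ug/ml Hoechst) was added. Nuclei counted on 4× images gave relative viability as treated counts over vehicle counts, reported as the median of duplicate plates.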

IDH-C35 + Bortezomib = compound: Cc1ccccc1C(C(=O)NC1CCCCC1)N(C(=O)Cn1ccnc1C)c1cccc(F)c1 [IDH-C35] + CC(C)C[C@H](NC(=O)[C@H](Cc1ccccc1)NC(=O)c1cnccn1)B(O)O [Bortezomib] (partner 0.002 µM)
Procedure, shortened: as §1

[2] = compound: CC1=C(C(=NN1)C)CC2=C(C3=C(S2)N(C(=O)N(C3=O)C)CC(C)C)C(=O)N4C[C@@H](CO4)O + C[C@@H](Oc1cc(-c2cnn(C3CCNCC3)c2)cnc1N)c1c(Cl)ccc(F)c1Cl [Crizotinib] (partner 1 µM)
Procedure, shortened: as §1

IDH-C35 + Vorinostat = compound: Cc1ccccc1C(C(=O)NC1CCCCC1)N(C(=O)Cn1ccnc1C)c1cccc(F)c1 [IDH-C35] + O=C(CCCCCCC(=O)Nc1ccccc1)NO [Vorinostat] (partner 1 µM)
Procedure, shortened: as §1

For LCLC-97TM1, the relative viability ([1]; first compound 0.0025 µM) was 0.262, the relative viability ([1]; first compound 0.007906 µM) was 0.266 and the relative viability ([1]; first compound 0.025 µM) was 0.279. For the same cell line, the relative viability ([1]; first compound 0.07906 µM) was 0.196, the relative viability ([1]; first compound 0.25 µM) was 0.247 and the relative viability (IDH-C35 + Bortezomib; first compound 0.08 µM) was 0.616. It also gave a relative viability (IDH-C35 + Bortezomib; first compound 0.253 µM) of 0.691, a relative viability (IDH-C35 + Bortezomib; first compound 0.8 µM) of 0.53 and a relative viability (IDH-C35 + Bortezomib; first compound 8 µM) of 0.511. The relative viability ([2]; first compound 0.0025 µM) was 0.448, the relative viability ([2]; first compound 0.007906 µM) was 0.436 and the relative viability ([2]; first compound 0.025 µM) was 0.371. For the same cell line, the relative viability ([2]; first compound 0.07906 µM) was 0.361, the relative viability ([2]; first compound 0.25 µM) was 0.692 and the relative viability (IDH-C35 + Vorinostat; first compound 0.08 µM) was 0.706. The relative viability (IDH-C35 + Vorinostat; first compound 0.253 µM) was 0.729, the relative viability (IDH-C35 + Vorinostat; first compound 0.8 µM) was 0.67 and the relative viability (IDH-C35 + Vorinostat; first compound 8 µM) was 0.436.
With LCLC-103H the relative viability ([1]; first compound 0.0025 µM) was 0.426, the relative viability ([1]; first compound 0.007906 µM) was 0.471 and the relative viability ([1]; first compound 0.025 µM) was 0.508. The relative viability ([1]; first compound 0.07906 µM) was 0.478, the relative viability ([1]; first compound 0.25 µM) was 0.443 and the relative viability (IDH-C35 + Bortezomib; first compound 0.08 µM) was 1.09. For the same cell line, the relative viability (IDH-C35 + Bortezomib; first compound 0.253 µM) was 1.14, the relative viability (IDH-C35 + Bortezomib; first compound 0.8 µM) was 1.07 and the relative viability (IDH-C35 + Bortezomib; first compound 2.53 µM) was 0.98. It also gave a relative viability (IDH-C35 + Bortezomib; first compound 8 µM) of 0.973, a relative viability ([2]; first compound 0.0025 µM) of 0.936 and a relative viability ([2]; first compound 0.007906 µM) of 1.03. The relative viability ([2]; first compound 0.025 µM) was 1.02, the relative viability ([2]; first compound 0.07906 µM) was 0.991 and the relative viability ([2]; first compound 0.25 µM) was 1.17. It also gave a relative viability (IDH-C35 + Vorinostat; first compound 0.08 µM) of 0.782, a relative viability (IDH-C35 + Vorinostat; first compound 0.253 µM) of 0.755 and a relative viability (IDH-C35 + Vorinostat; first compound 0.8 µM) of 0.87. It also gave a relative viability (IDH-C35 + Vorinostat; first compound 2.53 µM) of 0.591 and a relative viability (IDH-C35 + Vorinostat; first compound 8 µM) of 0.625.
With LOU-NH91 the relative viability ([1]; first compound 0.0025 µM) was 0.535, the relative viability ([1]; first compound 0.007906 µM) was 0.565 and the relative viability ([1]; first compound 0.025 µM) was 0.508. For the same cell line, the relative viability ([1]; first compound 0.07906 µM) was 0.496, the relative viability ([1]; first compound 0.25 µM) was 0.526 and the relative viability (IDH-C35 + Bortezomib; first compound 0.08 µM) was 0.574. The relative viability (IDH-C35 + Bortezomib; first compound 0.253 µM) was 0.485, the relative viability (IDH-C35 + Bortezomib; first compound 0.8 µM) was 0.519 and the relative viability (IDH-C35 + Bortezomib; first compound 2.53 µM) was 0.527. It also gave a relative viability (IDH-C35 + Bortezomib; first compound 8 µM) of 0.502, a relative viability ([2]; first compound 0.0025 µM) of 0.735 and a relative viability ([2]; first compound 0.007906 µM) of 0.733. The relative viability ([2]; first compound 0.025 µM) was 0.797, the relative viability ([2]; first compound 0.07906 µM) was 0.741 and the relative viability ([2]; first compound 0.25 µM) was 0.732. The relative viability (IDH-C35 + Vorinostat; first compound 0.08 µM) was 0.916, the relative viability (IDH-C35 + Vorinostat; first compound 0.253 µM) was 0.946 and the relative viability (IDH-C35 + Vorinostat; first compound 0.8 µM) was 0.894. For the same cell line, the relative viability (IDH-C35 + Vorinostat; first compound 2.53 µM) was 0.8 and the relative viability (IDH-C35 + Vorinostat; first compound 8 µM) was 0.888.
In the case of LU99A, the relative viability ([1]; first compound 0.0025 µM) is reported as 0.476, the relative viability ([1]; first compound 0.007906 µM) is reported as 0.493 and the relative viability ([1]; first compound 0.025 µM) is reported as 0.41. It also gave a relative viability ([1]; first compound 0.07906 µM) of 0.436, a relative viability ([1]; first compound 0.25 µM) of 0.391 and a relative viability (IDH-C35 + Bortezomib; first compound 0.08 µM) of 1.14. It also gave a relative viability (IDH-C35 + Bortezomib; first compound 0.253 µM) of 1.1, a relative viability (IDH-C35 + Bortezomib; first compound 0.8 µM) of 1.1 and a relative viability (IDH-C35 + Bortezomib; first compound 2.53 µM) of 1.05. It also gave a relative viability (IDH-C35 + Bortezomib; first compound 8 µM) of 1.16, a relative viability ([2]; first compound 0.0025 µM) of 0.542 and a relative viability ([2]; first compound 0.007906 µM) of 0.592. For the same cell line, the relative viability ([2]; first compound 0.025 µM) was 0.533, the relative viability ([2]; first compound 0.07906 µM) was 0.566 and the relative viability ([2]; first compound 0.25 µM) was 0.648. It also gave a relative viability (IDH-C35 + Vorinostat; first compound 0.08 µM) of 0.533, a relative viability (IDH-C35 + Vorinostat; first compound 0.253 µM) of 0.422 and a relative viability (IDH-C35 + Vorinostat; first compound 0.8 µM) of 0.483. For the same cell line, the relative viability (IDH-C35 + Vorinostat; first compound 2.53 µM) was 0.481 and the relative viability (IDH-C35 + Vorinostat; first compound 8 µM) was 0.505.
For LXF-289, the relative viability ([1]; first compound 0.0025 µM) was 0.525, the relative viability ([1]; first compound 0.007906 µM) was 0.605 and the relative viability ([1]; first compound 0.025 µM) was 0.574. It also gave a relative viability ([1]; first compound 0.07906 µM) of 0.586, a relative viability ([1]; first compound 0.25 µM) of 0.613 and a relative viability (IDH-C35 + Bortezomib; first compound 0.08 µM) of 0.984. For the same cell line, the relative viability (IDH-C35 + Bortezomib; first compound 0.253 µM) was 1, the relative viability (IDH-C35 + Bortezomib; first compound 0.8 µM) was 0.941 and the relative viability (IDH-C35 + Bortezomib; first compound 2.53 µM) was 0.999. The relative viability (IDH-C35 + Bortezomib; first compound 8 µM) was 0.955, the relative viability ([2]; first compound 0.0025 µM) was 0.817 and the relative viability ([2]; first compound 0.007906 µM) was 0.735. The relative viability ([2]; first compound 0.025 µM) was 0.818, the relative viability ([2]; first compound 0.07906 µM) was 0.789 and the relative viability ([2]; first compound 0.25 µM) was 0.818. The relative viability (IDH-C35 + Vorinostat; first compound 0.08 µM) was 0.768, the relative viability (IDH-C35 + Vorinostat; first compound 0.253 µM) was 0.787 and the relative viability (IDH-C35 + Vorinostat; first compound 0.8 µM) was 0.86. It also gave a relative viability (IDH-C35 + Vorinostat; first compound 2.53 µM) of 0.62 and a relative viability (IDH-C35 + Vorinostat; first compound 8 µM) of 0.799.
With NCI-H23 the relative viability ([1]; first compound 0.0025 µM) was 0.508, the relative viability ([1]; first compound 0.007906 µM) was 0.639 and the relative viability ([1]; first compound 0.025 µM) was 0.559. For the same cell line, the relative viability ([1]; first compound 0.07906 µM) was 0.518, the relative viability ([1]; first compound 0.25 µM) was 0.665 and the relative viability (IDH-C35 + Bortezomib; first compound 0.08 µM) was 0.977. It also gave a relative viability (IDH-C35 + Bortezomib; first compound 0.253 µM) of 0.836, a relative viability (IDH-C35 + Bortezomib; first compound 0.8 µM) of 1.07 and a relative viability (IDH-C35 + Bortezomib; first compound 2.53 µM) of 1.13. The relative viability (IDH-C35 + Bortezomib; first compound 8 µM) was 0.94, the relative viability ([2]; first compound 0.0025 µM) was 0.519 and the relative viability ([2]; first compound 0.007906 µM) was 0.613. For the same cell line, the relative viability ([2]; first compound 0.025 µM) was 0.499, the relative viability ([2]; first compound 0.07906 µM) was 0.568 and the relative viability ([2]; first compound 0.25 µM) was 0.604. For the same cell line, the relative viability (IDH-C35 + Vorinostat; first compound 0.08 µM) was 0.609, the relative viability (IDH-C35 + Vorinostat; first compound 0.253 µM) was 0.582 and the relative viability (IDH-C35 + Vorinostat; first compound 0.8 µM) was 0.578. For the same cell line, the relative viability (IDH-C35 + Vorinostat; first compound 2.53 µM) was 0.641 and the relative viability (IDH-C35 + Vorinostat; first compound 8 µM) was 0.636.
In the case of NCI-H322M, the relative viability ([1]; first compound 0.0025 µM) is reported as 0.557, the relative viability ([1]; first compound 0.007906 µM) is reported as 0.467 and the relative viability ([1]; first compound 0.025 µM) is reported as 0.536. The relative viability ([1]; first compound 0.07906 µM) was 0.441, the relative viability ([1]; first compound 0.25 µM) was 0.505 and the relative viability (IDH-C35 + Bortezomib; first compound 0.08 µM) was 1.22. It also gave a relative viability (IDH-C35 + Bortezomib; first compound 0.253 µM) of 1.17, a relative viability (IDH-C35 + Bortezomib; first compound 0.8 µM) of 1.15 and a relative viability (IDH-C35 + Bortezomib; first compound 2.53 µM) of 1.21. For the same cell line, the relative viability (IDH-C35 + Bortezomib; first compound 8 µM) was 1.27, the relative viability ([2]; first compound 0.0025 µM) was 1.03 and the relative viability ([2]; first compound 0.007906 µM) was 1.03. It also gave a relative viability ([2]; first compound 0.025 µM) of 0.758, a relative viability ([2]; first compound 0.07906 µM) of 0.927 and a relative viability ([2]; first compound 0.25 µM) of 0.998. It also gave a relative viability (IDH-C35 + Vorinostat; first compound 0.08 µM) of 0.875, a relative viability (IDH-C35 + Vorinostat; first compound 0.253 µM) of 0.866 and a relative viability (IDH-C35 + Vorinostat; first compound 0.8 µM) of 0.798. The relative viability (IDH-C35 + Vorinostat; first compound 2.53 µM) was 0.911 and the relative viability (IDH-C35 + Vorinostat; first compound 8 µM) was 0.922.
For NCI-H441, the relative viability ([1]; first compound 0.0025 µM) was 0.245, the relative viability ([1]; first compound 0.007906 µM) was 0.217 and the relative viability ([1]; first compound 0.025 µM) was 0.255. It also gave a relative viability ([1]; first compound 0.07906 µM) of 0.237, a relative viability ([1]; first compound 0.25 µM) of 0.215 and a relative viability (IDH-C35 + Bortezomib; first compound 0.08 µM) of 0.524. It also gave a relative viability (IDH-C35 + Bortezomib; first compound 0.8 µM) of 0.617, a relative viability (IDH-C35 + Bortezomib; first compound 2.53 µM) of 0.508 and a relative viability (IDH-C35 + Bortezomib; first compound 8 µM) of 0.447. The relative viability ([2]; first compound 0.0025 µM) was 0.715, the relative viability ([2]; first compound 0.007906 µM) was 0.774 and the relative viability ([2]; first compound 0.025 µM) was 0.608. For the same cell line, the relative viability ([2]; first compound 0.07906 µM) was 0.889, the relative viability ([2]; first compound 0.25 µM) was 0.945 and the relative viability (IDH-C35 + Vorinostat; first compound 0.08 µM) was 0.906. For the same cell line, the relative viability (IDH-C35 + Vorinostat; first compound 0.253 µM) was 0.74, the relative viability (IDH-C35 + Vorinostat; first compound 0.8 µM) was 0.787 and the relative viability (IDH-C35 + Vorinostat; first compound 2.53 µM) was 0.683. The relative viability (IDH-C35 + Vorinostat; first compound 8 µM) was 0.887.

— the supplement of paper PMC10307832
